Measurements reported in patent US9205135B2, “Podocyte pH modulation and uses thereof” (University of Miami, priority 2009, dated 2015).
Entries after “also recorded” stand apart in the source; their conditions may differ.

What was measured:
podocytes [1] = assay: Intracellular pH of cultured podocytes by CMFDA fluorescence; assay type: cell-based, mouse; conditions: glutamine present vs absent in culture medium; normal and α3 integrin deficient podocytes
Description: Podocyte pH was assessed with CMFDA—an indicator for pH. Higher green signal is consistent with a more alkaline cell. The presence of high glutamine levels in cell culture media alkalinizes the normal podocytes as well as podocytes that lack integrin α3β1 (genetic model cells for podocyte disease) (FIG. 3A). Both, LPS and PAN treatment stimulate cathepsin L activity in podocytes. Cathepsin L activity is lower in the presence of high glutamine in the cell culture media that in turn leads to a more alkaline podocyte cytosol (FIGS. 3B, 3C).
Modification of intracellular pH by glutamine: One of the key feature in podocyte injury that can be found in all three employed cellular podocyte models is the induction of cytosolic cathepsin L that in turn cleaves critical regulators of the podocyte microfilament system resulting in a reorganization of the podocyte actin cytoskeleton and proteinuria (6). In contrast to lysosomal cathepsin L, cytosolic cathepsin L is operating under non-acidic conditions. […] We used a fluorescent dye CMFDA (5-chloromethylfluorescein diacetate) that captures changes in intracellular pH by alterations in fluorescence (25). The more alkaline the pH, the more green fluorescence is detected (FIGS. 11a-c). […] Using CMFDA, the pH in control cells was determined at 7.1 and at 7.3 in α3 integrin-KO podocytes. […]

cathepsin L = assay: Cathepsin L activity in cultured podocytes, CV-(FR)2 substrate; assay type: cell-based, mouse
Description: Subcellular sites of cathepsin L and cathepsin B activity in glomerular extracts were visualized by a fluorogenic substrate, CV-(FR)2, which emits light upon cleavage by cathepsin L or cathepsin B (Biomol).
Measurement of cathepsin L activity: Cathepsin L activities in cultured podocytes and in glomeruli was measured using CV-CatL detection kit (Biomol, Plymouth Meeting, Pa.) as described in the manufacturer's instructions. The fluorophore cresyl violet [CV-(FR)2] substrate becomes florescent after Cat L cleavage of the attached Phe-Arg groups. This substrate easily penetrates the cell membrane and the membranes of the internal cellular organelles, enabling the detection of cathepsin activity within living podocytes.

C57BL/6 mice = assay: LPS-induced proteinuria model in mice; assay type: in vivo, mouse; conditions: for glomerular pH (CMFDA fluorescence of isolated glomeruli): glutamine 0.75 mg/g
Description: Treatment of mice with glutamine increases podocyte pH and protects from LPS-induced proteinuria: In order to translate our in vitro findings into a kidney disease relevant model, we next utilized the LPS model in mice known to cause podocyte foot process effacement and proteinuria driven by induction of cytosolic cathepsin L (6). To this end, mice were either injected with only LPS or treated with high dose (0.75 mg/g) glutamine injection 10 min after LPS administration. We analyzed the relative alkalinity of glomeruli using isolated glomeruli that were incubated with green CMFDA. […] We also tested renal function and measured proteinuria in these mice. […] These effects were also visible on an ultrastructural level.
(§1) Immunohistochemistry and immunoelectron microscopy: For immunofluorescent labeling, sections were washed once with PBS and incubated with blocking solution (2% FCS, 2% BSA, 0.2% fish gelatin) for 30 min at room temperature before further incubation with the primary antibody for 1 h at room temperature. Antigen-antibody complexes were visualized with secondary antibodies conjugated with fluorochromes. Specimens were analyzed using a Zeiss confocal microscope (Germany). Ultrathin sections of the kidneys were examined with a Philips CM10 electron microscope (The Netherlands). The number of podocytic FPs was counted in 10 different areas of representative glomeruli. In each area, the number of FPs was calculated within a distance of 1 μm on the GBM (34).
Animals and treatments: All animal studies were performed under protocols approved by the University of Miami animal care and use committee. C57BL/6 mice were obtained from The Jackson Laboratory. The mouse model LPS-induced proteinuria was utilized as previously described (16). Glutamine (Invitrogen) is injected i.p. (0.75 mg/g mouse) 10 min after LPS ([…]) (Sigma Aldrich, St. Louis, Mo.) injection.

wt podocytes = assay: F-actin cytoskeleton staining of cultured podocytes; assay type: cell-based, mouse; conditions: wt podocytes after LPS treatment, glutamine in medium vs absent
Description: The absence of cathepsin L protected from LPS-mediated loss of F-actin.
(§2) Cells, antibodies, and standard techniques: Mouse podocyte cell lines (15) and HEK 293 cells (6) were grown as described previously. NIH 3T3 cells were cultured in Dulbecco's modified Eagle's minimal essential medium (Invitrogen, Carlsbad, Calif.) supplemented with 10% fetal calf serum (Invitrogen) and incubated in a humidified atmosphere of 95% air and 5% CO2 at 37° C. Antibody used for immunostaining are Alexa Fluor 594 phalloidin (Molecular Probes, Eugene, Oreg.). Subcellular fractionation was performed as described previously (6).
as §1

podocytes [2] = assay: Glutamine uptake rate in cultured podocytes; assay type: cell-based, mouse; conditions: injury stimulus
Text: A podocyte metabolic model was constructed based on available databases as well as mRNA and protein expression data extracted from podocytes. The following podocyte culture models were employed: wildtype (control), LPS and PAN stimulated podocytes (inducible injury models) as well as podocytes with genetic deletion of the alpha3 gene (genetic disease model). All injury cultures increase the uptake of glutamine as well as gluconeogenic aminoacids. In addition, there is increasing ammonia production in diseased podocytes. These changes were predicted by the podocyte metabolic model and confirmed by measuring directly amino acids and ammonia (FIGS. 1A-1D).
Metabolic Flux Analysis emphasizes glutamine utilization pathways for podocyte function: We utilized cultured normal podocytes (control) (15) and three in vitro models for podocyte damage: i) podocytes with α3 integrin deletion (genetic model) (16); ii) podocytes treated with lipopolysaccharides (LPS, immunological model) (17); and iii) podocytes treated with puromycin aminonucleoside (PAN, toxic model) (18). […] Using the podocyte MFA network, we were able to extract podocyte aminoacid and glucose utilization (FIG. 10b-d) that was also independently measured in direct validation studies (data not shown). All analyzed modeling and experimentation data supported the notion that the aminoacid metabolism of podocytes is changed in disease. […]

HEK293 = assay: Glutamine uptake rate in HEK293 cells; assay type: cell-based
Description: (§3) All together, these experiments discovered a uniform metabolic response for podocytes that are injured.
as §2

NIH 3T3 = assay: Glutamine uptake rate in NIH 3T3 cells; assay type: cell-based
Description: as §3, §2

podocytes [3] = assay: Intracellular pH of podocytes by phosphorus NMR; assay type: cell-based, mouse; conditions: after 24 hours of LPS exposure; 7.0 under normal conditions
Description: Another example is using phosphorus NMR spectra for untreated and LPS-treated podocytes. Briefly, podocytes are cultured and treated with LPS. 8×10^7 to 1×10^8 cells are harvested and cultured in phosphate-free medium prior to assay. Phosphorous NMR spectra are acquired and analyzed using an iNMR software package. Intracellular pH (pHi) is calculated from the chemical shift difference (d) between the intracellular inorganic phosphate peak (Pi) and the primary phosphate of nucleoside phosphates (Pa) using equation 1.
Measurement of intracellular pH by NMR: Eighty to hundred million podocyte cells were harvested and resuspended in 2-2.5 mL of phosphate-free RPMI medium (MP Biomedicals, Solon, Ohio) with 2.0 mM glutamine (Invitrogen) prior to assay. Phosphorous NMR spectra were acquired on a 14 Tesla Bruker Avance NMR spectrometer (Bruker BioSpin, Billerica, Mass.) with a 10 mm broadband observe (BBO) NMR probe. Cell suspensions were placed in 10 mm (OD) glass NMR tubes (Wilmad LabGlass, Buena, N.J.). Samples were maintained at a temperature of 37° C. […] Spectra were analyzed using the iNMR software package (Mestrelab Research, Spain). Intracellular pH (pHi) was calculated from the chemical shift difference (d) between the intracellular inorganic phosphate peak (Pi) and the primary phosphate of nucleoside phosphates (Pa) using Eq. 1: […]

SNAT3 [4] = assay: RT-PCR expression of SNAT glutamine transporters in cultured podocytes; assay type: cell-based, mouse
Description: In brief, total RNA from cultured mouse podocytes was isolated with RNA isolation kit (Qiagen, Germantown, Md.) and the amount of RNA was measured by spectrophotometry. Purified RNA was reverse transcribed and PCR performed using PCR Mastercycler (Eppendorf, Westbury, N.Y.).
(§4) RT-PCR: We isolated total RNA from murine cultured podocytes and mouse glomeruli using the Trizol reagent (Invitrogen) according to the manufacturer's instructions. cDNA synthesis was performed with SuperScript II Reverse Transcriptase (Invitrogen) using Oligo(dT)12-18 oligonucleotide primers according to the manufacturer's instructions. All samples were run in duplicates.

SNAT3 [5] = assay: RT-PCR expression of SNAT glutamine transporters in mouse glomeruli; assay type: in vivo; conditions: glomeruli of mice stimulated with LPS
Text: Podocytes induce expression of SNAT glutamine transporters during injury: Having identified increased glutamine uptake and utilization as a signature for diseased podocytes that varies from other non-differentiated eukaryotic cells (FIG. 7), we studied the expression of the expression of system A (SNAT1, 2, 4) and system N(SNAT3, 5, 6) family members of sodium-coupled neutral amino acid transporters in cultured podocytes (FIG. 2a). Glutamine is known to be a favored substrate throughout the family, except for SNAT4 (21). We also studied these transporters in isolated mouse glomeruli (FIG. 2a). All SNATs were expressed besides SNAT5, 3 and 4 were only found at low levels. […] SNAT3, formerly known as SN1 (Slc38a3), is known as an antiporter that function in the presence of Na+ and takes up glutamine for the exchange of H+. It is highly expressed on the mRNA and protein level in the kidney during metabolic acidosis and involved in the regulation of acid-base homeostasis (22-24).
as §4

Molecule	podocyte cytosolic pH (CMFDA fluorescence) (podocytes [1])	cathepsin L activity in podocytes (cathepsin L; high glutamine in cell culture media, LPS or PAN treated podocytes)	podocyte foot process effacement (electron microscopy) (C57BL/6 mice; LPS-treated mice with glutamine vs LPS only)	glomerular pH (CMFDA fluorescence of isolated glomeruli) (C57BL/6 mice; LPS-treated mice)	proteinuria (urinary protein/creatinine ratio) (C57BL/6 mice; LPS-treated mice, glutamine 0.75 mg/g i.p., 24 h)	glomerular pH (CMFDA fluorescence of isolated glomeruli) (C57BL/6 mice; LPS-treated mice, listed as Glutamine)	F-actin presence (wt podocytes)	cathepsin L activity in podocytes (cathepsin L; effect of the injury stimulus itself)	glutamine uptake rate (podocytes [2])	glutamine uptake rate (HEK293)	glutamine uptake rate (NIH 3T3)	podocyte cytosolic pH (NMR) (podocytes [3])	SNAT3 mRNA expression (SNAT3 [4])	SNAT3 mRNA expression (SNAT3 [5])
NC(=O)CC[C@H](N)C(=O)O [glutamine]	alkalinizes; also recorded: more alkaline cytosolic pH	lower	protects; also recorded: decreased foot process effacement	increase in CMFDA fluorescence; also recorded: glomerular alkalinization; also recorded: increased alkalinity	ameliorates; also recorded: significant lower	increase in CMFDA fluorescence	improved F-actin presence	–	–	–	–	–	–	–
lipopolysaccharides [LPS]	–	–	–	–	–	–	–	stimulate	stimulated	did not respond	did not respond	6.9	prominent induction	increased markedly
